Source: PubChem BioAssay AID1996
Values after ≈ are worked out from the molar mass of the structure shown.

details: buffer; pH 7.4; 200.0 µM

Going from COc1cccc(NC(=O)c2ccc3c(c2)CCCC3)c1 to COc1ccc(NC(=O)c2cc3ccccc3cc2O)cc1, the solubility kinetic falls from 6 µg/mL (≈ 21.3 µM) to 1.5 µg/mL (≈ 5.11 µM) (4-fold).

Compared with Cc1ccc(C(=O)NCC(=O)Nc2ccc(S(=O)(=O)Nc3cc(C)nc(C)n3)cc2)cc1, Cc1ccc(OCC(=O)Nc2ccc(NC(=O)c3ccccc3)c(C)c2)cc1 is lower in solubility kinetic: over 68 µg/mL for the first, 1 µg/mL (≈ 2.67 µM) for the second.

Cc1cccc(N2C(=O)C3CCCN3C2=S)c1 (centres undefined) and CCCc1ccc2oc(C(=O)N3CCC[C@H]3CO)c(C)c2c1 are within 1.5-fold of each other in solubility kinetic: 36.1 µg/mL (≈ 147 µM) for the first, 41.8 µg/mL (≈ 139 µM) for the second.

COc1cc(/C=C/C(=O)OCC(=O)NC2CC2)cc(OC)c1OC and COc1cccc(OCC(=O)NC2CCS(=O)(=O)C2)c1 (centres undefined) cannot be ordered by solubility kinetic: over 50.3 µg/mL for the first, over 44.9 µg/mL for the second.

First: Cc1nc(=O)c(-c2ccccc2)c(C)n1-c1ccccc1
Second: O=S1(=O)N=C(c2ccccc2)c2ccccc21
The solubility kinetic of the first is higher: over 41.5 µg/mL for the first, 34.7 µg/mL (≈ 143 µM) for the second.

Going from Cc1cc(OCC(O)CN2CCCC2)ccc1C(C)C.Cl (centres undefined) to Cl.O=C(COc1ccc(Cl)cc1)NCCN1CCCC1, the solubility kinetic rises from 39.1 µg/mL to over 47.9 µg/mL.

Going from CC(=O)NCCC(=O)Nc1nc(-c2ccc3ccccc3c2)cs1 to Cc1nc(-c2ccc(NC(=O)Cc3ccccc3)cc2)cs1, the solubility kinetic falls from 6.5 µg/mL (≈ 19.2 µM) to 1 µg/mL (≈ 3.24 µM) (6.5-fold).

Going from O=C1NC(=O)c2cc(Oc3ccc([N+](=O)[O-])cc3)ccc21 to O=C(COc1ccccc1Cl)Nc1ccc2c(c1)C(=O)NC2=O, the solubility kinetic falls from 2.5 µg/mL (≈ 8.8 µM) to under 0.4 µg/mL.

C=C(c1ccccc1Cl)[n+]1ccccc1.F[B-](F)(F)F and O=C(CNC(=O)c1ccccc1)NCC(=O)OCC(=O)c1ccccc1Cl cannot be ordered by solubility kinetic: over 45.5 µg/mL for the first, 50.1 µg/mL (≈ 129 µM) for the second.

Going from COC(=O)c1ccc(CNC(=O)COC(=O)c2cc(Cl)ccc2O)cc1 to CCOC(=O)c1ccc(CN2Cc3ccccc3C2=O)cc1, the solubility kinetic rises from 7.1 µg/mL (≈ 18.8 µM) to over 44.3 µg/mL.

Compared with CSc1ccccc1C(=O)Nc1c(C)cccc1C, Cc1ccccc1C(=O)Nc1ccc(S(=O)(=O)N2CCOCC2)cc1 is higher in solubility kinetic: 22.9 µg/mL (≈ 84.4 µM) for the first, over 54.1 µg/mL for the second.

CNCc1ccccc1Sc1ccc(O)c(O)c1.O=C([O-])/C=C\C(=O)[O-] and CC(=O)Nc1ccc(N=c2cc([N+](=O)[O-])cc(Cl)n2O)cc1 are within 1.5-fold of each other in solubility kinetic: 31.5 µg/mL for the first, 29 µg/mL (≈ 89.9 µM) for the second.

First: O=C(Nc1ccc(CN2CCS(=O)(=O)CC2)cc1)c1ccc(F)cc1
Second: O=C(Nc1ccc(C(=O)c2ccccc2)cc1)c1ccccc1
The solubility kinetic of the first is higher: 29.9 µg/mL (≈ 82.5 µM) for the first, under 0.6 µg/mL for the second.

Compared with CCOc1ccc(C(C)NC(=O)Nc2ccc(F)cc2F)cc1 (centres undefined), CNC(=O)CSc1nc2cccnc2n1-c1ccc(F)cc1 is 25-fold higher in solubility kinetic: 1.8 µg/mL (≈ 5.62 µM) for the first, 44.7 µg/mL (≈ 141 µM) for the second.

Going from Cc1ccc(C(=O)COC(=O)c2cn3ccccc3n2)cc1 to O=C(COC(=O)c1ccncc1)c1ccc(Br)cc1, the solubility kinetic rises from 4.1 µg/mL (≈ 13.9 µM) to 44 µg/mL (≈ 137 µM) (11-fold).

Going from CC(C)Oc1ccc(OCCn2c(=S)[nH]c3c(N)ncnc32)cc1 to CC1=C(C(=O)OCCOC(C)C)C(c2cccc3ccccc23)NC(=O)N1 (centres undefined), the solubility kinetic falls from 45.2 µg/mL (≈ 131 µM) to 4.6 µg/mL (≈ 12.5 µM) (9.8-fold).

First: Cc1nnc(SCc2nnc(-c3cccs3)o2)n1C
Second: COc1ccc(C=O)cc1Cn1c(C)cc(C)c(C#N)c1=O
The solubility kinetic of the first is higher: over 44 µg/mL for the first, 0.6 µg/mL (≈ 2.02 µM) for the second.

Compared with Cc1cccc(NC(=O)C2CCN(S(C)(=O)=O)CC2)c1C, CC(C)(C)NS(=O)(=O)c1ccc(NC(=S)NC(=O)C2CC2)cc1 is lower in solubility kinetic: over 46.6 µg/mL for the first, 3 µg/mL (≈ 8.44 µM) for the second.

Compared with COC(=O)c1ccccc1Oc1cnc2ccccc2n1, CN(Cc1cc2ccccc2[nH]c1=O)C(=O)COc1ccccc1 is lower in solubility kinetic: over 42 µg/mL for the first, 13.8 µg/mL (≈ 42.8 µM) for the second.

Compared with Cl.Clc1ccc2sc(C3CCNCC3)nc2c1, CN1CCc2c(sc(/N=C/c3c[nH]c4ccccc34)c2C(N)=O)C1 is 4.2-fold lower in solubility kinetic: 43.3 µg/mL for the first, 10.2 µg/mL (≈ 30.1 µM) for the second.

O=C1NNC(=O)C1c1ccccc1 and Cc1c(C=C2C(=O)NC(=O)NC2=O)c(=O)n(-c2ccccc2)n1C cannot be ordered by solubility kinetic: over 26.4 µg/mL for the first, over 48.9 µg/mL for the second.

First: O=C(CN1CCOCC1)NCc1ccccc1Cl
Second: CCCOc1ccc(S(=O)(=O)N2CCN(C)CC2)c2ccccc12
The solubility kinetic of the first is higher: over 40.3 µg/mL for the first, 39.2 µg/mL (≈ 112 µM) for the second.

Going from O=[N+]([O-])c1ccc2nonc2c1Nc1cccc(F)c1 to Cc1ccc2nc(Nc3ccccc3)cc(C)c2c1, the solubility kinetic rises from 1 µg/mL (≈ 3.65 µM) to 3.9 µg/mL (≈ 15.7 µM) (3.9-fold).

COC(=O)c1ccc(C(=O)OC)c(NC(=O)/C=C/C(=O)O)c1 and Cc1ccc(C)c(NC(=O)CCC(=O)NN=C2CCCC2)c1 cannot be ordered by solubility kinetic: over 46.1 µg/mL for the first, over 45.2 µg/mL for the second.

First: Cc1ccc(NC(=S)NCc2ccccc2)c(C)c1
Second: O=C(CNC(=O)c1ccccc1F)NCc1cccnc1
The solubility kinetic of the first is lower: 39.2 µg/mL (≈ 145 µM) for the first, over 43.1 µg/mL for the second.

Compared with CCOC(=O)N1CCN(C(=O)CSc2nc3nc(C)cc(C)n3n2)CC1, CC1CN(S(=O)(=O)c2cccc(C(=O)OCC(=O)N3CCCCCC3)c2)CC(C)O1 (centres undefined) is lower in solubility kinetic: over 56.8 µg/mL for the first, 12.9 µg/mL (≈ 29.4 µM) for the second.

Nc1ccc(S(=O)(=O)[O-])c[nH+]1 and O=S(=O)(Nc1cccc(S(=O)(=O)N2CCCC2)c1)c1cccs1 cannot be ordered by solubility kinetic: over 26.1 µg/mL for the first, 51.9 µg/mL (≈ 139 µM) for the second.

Going from CN(C)c1ccc2nsnc2c1[N+](=O)[O-] to CC1CC1C(=O)N(C)CC(=O)Nc1ccccc1Br (centres undefined), the solubility kinetic rises from 33.4 µg/mL (≈ 149 µM) to over 48.8 µg/mL.

First: COCC(=O)N1CCCC(C(=O)c2ccc(C(F)(F)F)cc2)C1 (centres undefined)
Second: O=C(NCc1cccc(C(F)(F)F)c1)c1ccc2c(c1)OCO2
The solubility kinetic of the first is higher: over 49.4 µg/mL for the first, 34.8 µg/mL (≈ 108 µM) for the second.

For S=C(NCCc1ccccn1)Nc1cc(Cl)cc(Cl)c1, the solubility kinetic was 19 µg/mL (≈ 58.2 µM).
